Counter-ions that a name gives are not always drawn.
molecular target: IRAK4 (Homo sapiens (Human), UniProt Q9NWZ3); experiment: IRAK4 kinase activity, IMAP fluorescence polarization assay; format: biochemical; details: 100 μM ATP, 0.5 nM GST tagged IRAK4; read-out: IRAK4 IC50
How it was run: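 GST-tagged IRAK4 at 0.5 nM phosphorylates 100 nM fluorescent peptide substrate with 100 μM ATP in pH 7.2 Tris buffer containing MgCl2, DTT and Tween 20, 30 min at 25 °C. Reaction stopped with IMAP binding reagent; phosphorylation read as increased fluorescence polarization.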

IRAK4, sequence (Q9NWZ3 whole entry): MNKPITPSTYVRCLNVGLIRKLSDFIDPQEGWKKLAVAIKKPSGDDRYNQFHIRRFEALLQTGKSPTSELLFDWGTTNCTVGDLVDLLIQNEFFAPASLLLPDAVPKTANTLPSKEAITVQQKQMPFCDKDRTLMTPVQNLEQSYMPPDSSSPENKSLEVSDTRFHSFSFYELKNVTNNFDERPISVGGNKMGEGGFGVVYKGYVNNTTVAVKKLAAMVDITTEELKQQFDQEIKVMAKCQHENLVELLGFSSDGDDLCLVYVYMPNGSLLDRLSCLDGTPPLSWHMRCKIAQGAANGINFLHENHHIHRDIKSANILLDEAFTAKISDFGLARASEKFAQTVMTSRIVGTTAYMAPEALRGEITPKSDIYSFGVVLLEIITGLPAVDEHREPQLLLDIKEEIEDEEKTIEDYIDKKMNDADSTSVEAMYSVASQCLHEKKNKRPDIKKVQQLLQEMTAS

| Structure (SMILES) | IC50 [nM] |
| --- | --- |
| C[C@H]1C[C@@H](Nc2nc(N3CCOCC3)[nH]c(=O)c2-c2ccc3ccccc3n2)[C@H](O)[C@@H]1O [Example 46, 6-((1R,2S,3R,4S)-2,3-Dihydroxy-4-methylcyclopentylamino)-2-morpholino-5-(quinolin-2-yl)pyrimidin-4(3H)-one.HCl] | 5 |
| C[C@H]1CC[C@@H](Nc2nc(N3CCOCC3)[nH]c(=O)c2-c2nc3ccccc3s2)CN1 (racemic) [Example 123, 5-(benzo[d]thiazol-2-yl)-6((6-methylpiperidin-3-yl)amino)-2-morpholinopyrimidin-4(3H)-one.HCl] | 847 |
| CC(C)[C@H]1C[C@@H](Nc2nc(N3CCC(c4cncnc4)CC3)[nH]c(=O)c2-c2nc3ccccc3s2)[C@H](O)[C@@H]1O [Example 44, 5-(Benzo[d]thiazol-2-yl)-6-((1R,2S,3R,4R)-2,3-dihydroxy-4-isopropylcyclopentylamino)-2-(4-(pyrimidin-5-yl)piperidin-1-yl)pyrimidin-4(3H)-one.HCl] | 23 |
| O=c1[nH]c(NC2CCCCC2)nc(N[C@@H]2C[C@H](CO)[C@@H](O)[C@H]2O)c1-c1nc2ccccc2s1 [Example 6, 5-(Benzo[d]thiazol-2-yl)-2-(cyclohexylamino)-6-((1R,2S,3R,4R)-2,3-dihydroxy-4-(hydroxymethyl)cyclopentylamino)pyrimidin-4(3H)-one.HCl] | 636 |
| O=c1[nH]c(NC2CCC2)nc(N[C@@H]2C[C@H](CO)[C@@H](O)[C@H]2O)c1-c1nccs1 [Example 22, 2-(Cyclobutylamino)-6-((1R,2S,3R,4R)-2,3-dihydroxy-4-(hydroxymethyl)cyclopentylamino)-5-(thiazol-2-yl)pyrimidin-4(3H)-one.HCl] | 1110 |
| CC(C)(C)c1ccc2sc(-c3c(N[C@@H]4CCCNC4)nc(N4CCOCC4)[nH]c3=O)nc2c1 [Example 342, (R)-5-(5-tert-butylbenzo[d]thiazol-2-yl)-2-morpholino-6-(piperidin-3-ylamino)pyrimidin-4(3H)-one] | 1300 |
| Cc1ccc2sc(-c3c(N[C@@H]4CCCNC4)nc(N4CCOCC4)[nH]c3=O)nc2c1 [Example 341, 5-(5-methyl-1,3-benzothiazol-2-yl)-2-(morpholin-4-yl)-6-[[(3R)-piperidin-3-yl]amino]-3,4-dihydropyrimidin-4-one formic acid] | 50 |
| CC(C)[C@H]1C[C@@H](Nc2nc[nH]c(=O)c2-c2nc3ccccc3s2)[C@H](O)[C@@H]1O [Example 43, 5-(Benzo[d]thiazol-2-yl)-6-((1R,2S,3R,4R)-2,3-dihydroxy-4-isopropylcyclopentylamino)pyrimidin-4(3H)-one.HCl] | 850 |
| N[C@H]1CCCC[C@H]1Nc1cccc2sc(-c3c(N[C@@H]4CCCNC4)nc(N4CCOCC4)[nH]c3=O)nc12 (racemic) [Example 353, 5-[4-[(cis, rac)-(2-aminocyclohexyl)amino]-1,3-benzothiazol-2-yl]-2-(morpholin-4-yl)-6-[[(3R)-piperidin-3-yl]amino]-3,4-dihydropyrimidin-4-one] | 24 |
| O=c1[nH]c(N2CCOCC2)nc(N[C@H]2CNC[C@H](O)C2)c1-c1nc2ccccc2s1 [Example 105, 5-(benzo[d]thiazol-2-yl)-6-(((3R,5R)-5-hydroxypiperidin-3-yl)amino)-2-morpholinopyrimidin-4(3H)-one.HCl] | 85 |
| O=c1[nH]c(N2CCCCC2)nc(N[C@@H]2CCCNC2)c1-c1nc2c(C3CC3)nccc2s1 [Example 117, (R)-5-(4-cyclopropylthiazolo[4,5-c]pyridin-2-yl)-2-(piperidin-1-yl)-6-(piperidin-3-ylamino)pyrimidin-4(3H)-one.HCl] | 8.6 |
| O=c1[nH]c(N2CCOCC2)nc(N[C@@H]2CCCNC2)c1-c1nc2cc(F)ccc2s1 [Example 97, (R)-5-(5-Fluorobenzo[d]thiazol-2-yl)-2-morpholino-6-(piperidin-3-ylamino)pyrimidin-4(3H)-one.HCl] | 8.4 |
| O=c1[nH]c(N[C@@H]2C[C@H](CO)[C@@H](O)[C@H]2O)c(-c2nc3ccccc3s2)c(=O)[nH]1 [Example 7, 5-(Benzo[d]thiazol-2-yl)-6-((1R,2S,3R,4R)-2,3-dihydroxy-4-(hydroxymethyl)cyclopentylamino)pyrimidine-2,4(1H,3H)-dione.HCl] | 1490 |

Next, values leading:

| IC50 [nM] | Structure (SMILES) |
| --- | --- |
| 23 | O=c1[nH]c(N2CCCCC2)nc(N[C@@H]2C[C@H](CO)[C@@H](O)[C@H]2O)c1-c1ccc2ccccc2n1 [Example 19, 6-((1R,2S,3R,4R)-2,3-Dihydroxy-4-(hydroxymethyl)cyclopentylamino)-2-(piperidin-1-yl)-5-(quinolin-2-yl)pyrimidin-4(3H)-one.HCl] |
| 97 | CN1CCN(c2nc(N[C@@H]3CCCNC3)c(-c3ccc4ccccc4n3)c(=O)[nH]2)CC1 [Example 116, (R)-2-(4-methylpiperazin-1-yl)-6-(piperidin-3-ylamino)-5-(quinolin-2-yl)pyrimidin-4(3H)-one.HCl] |
| 54 | O=c1[nH]c(N2CCCCC2)nc(N[C@@H]2CCCNC2)c1-c1ccc2ccccc2n1 [Example 115, (R)-2-(piperidin-1-yl)-6-(piperidin-3-ylamino)-5-(quinolin-2-yl)pyrimidin-4(3H)-one.HCl] |
| 79 | O=c1[nH]c(N2CCOCC2)nc(N[C@@H]2CCCCNC2)c1-c1nc2ccccc2s1 [Example 104, (R)-6-(azepan-3-ylamino)-5-(benzo[d]thiazol-2-yl)-2-morpholinopyrimidin-4(3H)-one.HCl] |

same assay, conditions: 100 μM ATP; read-out: IC50

| Structure (SMILES) | IC50 [nM] |
| --- | --- |
| NC(=O)CNc1nc(N[C@@H]2CCCNC2)c(-c2nc3ccccc3s2)c(=O)[nH]1 [Example 302, (R)-2-(5-(benzo[d]thiazol-2-yl)-6-oxo-4-(piperidin-3-ylamino)-1,6-dihydropyrimidin-2-ylamino)acetamide bis(2,2,2-trifluoroacetate)] | 2300 |
| O=C1CCCN1c1cccc(-c2c(N[C@@H]3CCCNC3)nc(N3CCOCC3)[nH]c2=O)n1 [Example 216, (R)-2-morpholino-5-(6-(2-oxopyrrolidin-1-yl)pyridin-2-yl)-6-(piperidin-3-ylamino)pyrimidin-4(3H)-one] | 258 |
| O=c1[nH]c(N2CCOCC2)nc(NCCN2CCC(O)CC2)c1-c1ccc2ccccc2n1 [Example 282, 6-[[2-(4-hydroxypiperidin-1-yl)ethyl]amino]-2-(morpholin-4-yl)-5-(quinolin-2-yl)-3,4-dihydropyrimidin-4-one] | 2200 |
| O=c1[nH]c(N2CCOCC2)nc(N[C@@H]2CCCNC2)c1-c1csc(-n2cccn2)n1 [Example 217, (R)-5-(2-(1H-pyrazol-1-yl)thiazol-4-yl)-2-morpholino-6-(piperidin-3-ylamino)pyrimidin-4(3H)-one] | 82 |
| O=c1[nH]c(N2CCOCC2)nc(NC2CN3CCC2CC3)c1-c1nc2ccccc2s1 (centres unmarked) [Example 208, 5-(benzo[d]thiazol-2-yl)-2-morpholino-6-(quinolidin-3-ylamino)pyrimidin-4(3H)-one] | 50 |
| N[C@H]1C[C@H]1Nc1nc(N2CCOCC2)[nH]c(=O)c1-c1nc2ccccc2s1 [Example 247, 6-[[(1R,2S)-2-amino-cyclopropyl]amino]-5-(1,3-benzothiazol-2-yl)-2-(morpholin-4-yl)-3,4-dihydropyrimidin-4-one] | 3000 |

Results, then the molecule that gave them:

| IC50 [nM] | Structure (SMILES) |
| --- | --- |
| 4900 | O=c1[nH]c(N2CCOCC2)nc(NCCN2CCCC2)c1-c1ccc2ccccc2n1 [Example 279, 2-(morpholin-4-yl)-6-[[2-(pyrrolidin-1-yl)ethyl]amino]-5-(quinolin-2-yl)-3,4-dihydropyrimidin-4-one] |
| 466 | O=c1[nH]c(N2CCOCC2)nc(N[C@@H]2CCCNC2)c1-c1cc2ccccc2cn1 [Example 225, (R)-5-(isoquinolin-3-yl)-2-morpholino-6-(piperidin-3-ylamino)pyrimidin-4(3H)-one] |

same assay, conditions: 100 μM ATP; read-out: IRAK4 IC50

| Structure (SMILES) | IC50 [nM] |
| --- | --- |
| O=c1[nH]c(N2CCN(c3ccc4c(c3)OCO4)CC2)nc(N[C@@H]2CCCNC2)c1-c1nc2ccccc2s1 [Example 155, (R)-2-(4-(benzo[d][1,3]dioxol-5-yl)piperazin-1-yl)-5-(benzo[d]thiazol-2-yl)-6-(piperidin-3-ylamino)pyrimidin-4(3H)-one] | 11 |
| O=c1[nH]c(N2CCOCC2)nc(N[C@@H]2CCCNC2)c1-c1nc(-c2ccccc2F)cs1 [Example 201] | 60 |

Other lines, results leading:

| IC50 [nM] | Structure (SMILES) |
| --- | --- |
| 32 | O=c1[nH]c(N2CCC(c3ccccc3C(F)(F)F)CC2)nc(N[C@@H]2CCCNC2)c1-c1ccc2ccccc2n1 [Example 190, (R)-6-(piperidin-3-ylamino)-5-(quinolin-2-yl)-2-(4-(2-(trifluoromethyl)phenyl)piperidin-1-yl)pyrimidin-4(3H)-one] |
| 13 | O=c1[nH]c(N2CC[C@H](F)C2)nc(N[C@@H]2CCCNC2)c1-c1ccc2ccccc2n1 [Example 177, 2-((S)-3-fluoropyrrolidin-1-yl)-6-((R)-piperidin-3-ylamino)-5-(quinolin-2-yl)pyrimidin-4(3H)-one] |
| 13 | O=c1[nH]c(N2CC[C@@H](CO)C2)nc(N[C@@H]2CCCNC2)c1-c1ccc2ccccc2n1 [Example 179, 2-((R)-3-(hydroxymethyl)pyrrolidin-1-yl)-6-((R)-piperidin-3-ylamino)-5-(quinolin-2-yl)pyrimidin-4(3H)-one] |
| 17 | O=c1[nH]c(N2C[C@H](F)[C@@H](F)C2)nc(N[C@@H]2CCCNC2)c1-c1ccc2ccccc2n1 [Example 175, 2-((3S,4S)-3,4-difluoropyrrolidin-1-yl)-6-((R)-piperidin-3-ylamino)-5-(quinolin-2-yl)pyrimidin-4(3H)-one] |

same assay, conditions: unit inferred; 100 μM ATP; read-out: IRAK4 IC50

| IC50 [nM] | Structure (SMILES) |
| --- | --- |
| 13.3 | O=c1[nH]c(N2CCC(c3cccnc3)CC2)nc(N[C@@H]2C[C@H](CO)[C@@H](O)[C@H]2O)c1-c1nc2ccccc2s1 [Example 70, 5-(benzo[d]thiazol-2-yl)-6-((1R,2S,3R,4R)-2,3-dihydroxy-4-(hydroxymethyl)cyclopentylamino)-2-(4-(pyridin-3-yl)piperidin-1-yl)pyrimidin-4(3H)-one] |

Source: US9221809B2 (MERCK SHARP & DOHME CORP., priority 2011, dated 2015)
